From PMC12292835, “Amylin Receptor 1 Mutagenesis Revealed a Potential Role of Calcitonin Serine 29 in Receptor Interaction” (Biomedicines, 2025)
Where a SMILES comes first, the peptide text is derived from it. The star is where a group is joined. FITC = O=C1OC2(c3ccc(O)cc3Oc3cc(O)ccc32)c2ccc(NC(=S)*)cc21

Key:
[1] = target: T1, amylin receptor 1 ECD with calcitonin receptor D101E mutation (Homo sapiens, UniProt O60894+P30988, D101E); experiment: FP saturation binding, D101E; conditions: for Average fluorescence intensity change upon receptor ECD binding: % of a free probe intensity, Mean ± S.D., max receptor 3 μM (sCT), 1 μM (AC413)
T1 construct: pHLsec/hRAMP1.24–111-(GSA)3-hCTR.34–141.D101E-H6 (D-pJJ002); H6 (hexahistidine) (C); made in house; host or cells: HEK293 (transient transfection, secreted, N-glycosylated)
Excerpt: pHLsec-based vectors were used to express wild-type and mutated amylin receptor 1 extracellular domains as secreted proteins to cell culture media. The plasmid DNA construct of the wild-type amylin receptor 1 extracellular domain, pHLsec/hRAMP1.24–111-(GSA)3-hCTR.34–141-H6 (H-pSL005) was previously described. The following DNA vector plasmids were made for this study: pHLsec/hRAMP1.24–111-(GSA)3-hCTR.34–141.D97A-H6 (D-pSL009), pHLsec/hRAMP1.24–111-(GSA)3-hCTR.34–141.D97E-H6 (D-pJS001), pHLsec/hRAMP1.24–111-(GSA)3-hCTR.34–141.D101A-H6 (D-pJJ003), pHLsec/hRAMP1.24–111-(GSA)3-hCTR.34–141.D101E-H6 (D-pJJ002), pHLsec/hRAMP1.24–111-(GSA)3-hCTR.34–141.E123A-H6 (D-pJJ004), pHLsec/hRAMP1.24–111-(GSA)3-hCTR.34–141.E123D-H6 (D-pJJ001), pHLsec/hRAMP1.24–111-(GSA)3-hCTR.34–141.N124A-H6 (D-pJS005), pHLsec/hRAMP1.24–111-(GSA)3-hCTR.34–141.N124D-H6 (D-pJS006), pHLsec/hRAMP1.24–111-(GSA)3-hCTR.34–141.N135A-H6 (D-pJW001), and pHLsec/hRAMP1.24–111-(GSA)3-hCTR.34–141.N135D-H6 (D-pJS002). The mutations were introduced to the calcitonin receptor extracellular domain by using DNA Assembly reaction. Coding sequences of the receptor expression vectors were confirmed with Sanger sequencing by Bionics (Seoul, Republic of Korea). DNA plasmid vectors were extracted and were purified from bacterial cells with NucleoBond® Extra Midi Plus kit (Macherey-Nagel, Germany). The purified DNA vectors were stored at −20 °C until their use for mammalian cell transfection.
The overall experimental procedure of reconstituting the functional amylin receptor 1 extracellular domain (ECD) as the fusion protein of RAMP1 ECD and the calcitonin receptor ECD was previously described. The wild-type and mutated amylin receptor 1 ECDs were expressed from HEK293 cells with transient transfection with polyethylenimine. […]
The overall procedure of the FP binding assay with a saturation binding format was previously described. […] FITC-labeled peptide probes were incubated for 1 h at room temperature with the purified receptor protein prior to fluorescence signal measurement. […]

receptor ECD = receptor ECD binding; cited from earlier work
Procedure: The salmon calcitonin C-terminal fragment was reported to have micromolar affinity (KI 1~3 μM) both for calcitonin and amylin receptor ECDs. The fluorescein isothiocyanate (FITC)-labeled salmon calcitonin fragment (FITC-sCT(22–32)) was used as a peptide probe for the receptor–ligand binding assay in the current study. FITC addition to the N-terminus of an amylin receptor antagonistic peptide AC413(6–25) Y25P was previously shown to increase the peptide affinity for receptor ECD binding by more than 10-fold. Based on the binding affinity of FITC-sCT(22–32) measured in the current ...

T1 sequence (O60894 24-111): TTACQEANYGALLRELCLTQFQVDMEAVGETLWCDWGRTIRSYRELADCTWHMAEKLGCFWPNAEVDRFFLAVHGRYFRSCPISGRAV
T1 sequence (P30988 34-141 D101E): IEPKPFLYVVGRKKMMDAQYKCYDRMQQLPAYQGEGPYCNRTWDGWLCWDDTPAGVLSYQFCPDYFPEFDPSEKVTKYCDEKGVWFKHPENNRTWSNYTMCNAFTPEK

Row | Average fluorescence intensity change upon receptor ECD binding [1] [%] | effect of mutation on binding affinity ([1]; in words) | SMILES | increase of peptide affinity by FITC addition to the N-terminus (receptor ECD)
1 | 118 ± 13 | failed to recover the binding affinity | C[C@@H](O)[C@H](NC(=O)[C@H](CC(N)=O)NC(=O)[C@@H](NC(=O)[C@H](CCCNC(=N)N)NC(=O)[C@@H]1CCCN1C(=O)[C@H](Cc1ccc(O)cc1)NC(=S)Nc1ccc2c(c1)C(=O)OC21c2ccc(O)cc2Oc2cc(O)ccc21)[C@@H](C)O)C(=O)NCC(=O)N[C@@H](CO)C(=O)NCC(=O)N[C@H](C(=O)N1CCC[C@H]1C(N)=O)[C@@H](C)O [FITC-sCT(22–32)] ({FITC}-YPRTNTGSGTP-NH2; C-terminus assumed) | –
2 | 99 ± 3 | – | CC(C)C[C@H](NC(=O)[C@H](CCCNC(=N)N)NC(=O)[C@@H](NC(=O)[C@H](CC(C)C)NC(=O)[C@H](Cc1ccccc1)NC(=O)[C@H](CC(N)=O)NC(=O)[C@H](C)NC(=S)Nc1ccc2c(c1)C(=O)OC21c2ccc(O)cc2Oc2cc(O)ccc21)C(C)C)C(=O)N[C@@H](CCC(N)=O)C(=O)N[C@H](C(=O)N[C@@H](Cc1ccc(O)cc1)C(=O)N1CCC[C@H]1C(=O)N[C@@H](CCCNC(=N)N)C(=O)N[C@H](C(=O)N[C@@H](CC(N)=O)C(=O)N[C@H](C(=O)NCC(=O)N[C@@H](C)C(=O)N[C@@H](CC(N)=O)C(=O)N[C@H](C(=O)N1CCC[C@H]1C(N)=O)[C@@H](C)O)C(C)C)[C@@H](C)O)[C@@H](C)O [FITC-AC413(6–25) Y25P] ({FITC}-ANFLVRLQTYPRTNVGANTP-NH2; C-terminus assumed) | more than 10 fold
